Source: patent US11554182B2, “Macrocyclic complexes of alpha-emitting radionuclides and their use in targeted radiotherapy of cancer” (CORNELL UNIVERSITY, priority 2017, dated 2023)

Test: In vivo biodistribution of ^225Ac complexes after intravenous injection
Design: species or system C57BL/6 mice
Description: In Vivo Biodistribution of ^225Ac Complexes of Macropa and DOTA. All experiments were approved by the Institutional Animal Care Committee (IACC) of the University of British Columbia and were performed in accordance with the Canadian Council on Animal Care Guidelines. A total of 9 female C57BL/6 mice (6-8 weeks old, 20-25 g) were used for the biodistribution study of each radiometal complex, n=3 for each time point.
Macropa (100 μL of a 1 mg/mL solution in NH4OAc) was diluted with 387 μL of NH4OAc (1 M, pH 7), and an aliquot (203 μL) of ^225Ac(NO3)3 (˜157 kBq) was then added; the pH of this solution was adjusted to 6.5-7 by the addition of 1 M NaOH (210 μL, trace metal grade). After 5 min at ambient temperature, the reaction solution was analyzed by TLC (0.4 M pH 4 sodium citrate as the eluent), which confirmed >95% radiochemical yield. The reaction was allowed to proceed overnight, and the radiochemical yield was again confirmed to be >95% the following morning. At this time, mice were anesthetized by 2% isoflurane, and approximately 100 μL (10-15 kBq) of the [^225Ac(macropa)]^+ complex were injected into the tail vein of each mouse. After injection, mice were allowed to recover and roam freely in their cages, and were euthanized by CO2 inhalation at 15 min, 1 h, or 5 h (n=3 at each time point) post-injection. Blood was collected by cardiac puncture and placed into an appropriate test tube for scintillation counting. Tissues collected included heart, liver, kidneys, lungs, small intestine, large intestine, brain, bladder, spleen, stomach, pancreas, bone, thyroid, tail, urine, and feces. Tissues were weighed and then counted with a calibrated gamma counter (Packard, Cobra II model 5002) using three energy windows: 60-120 keV (window A), 180-260 keV (window B), and 400-480 keV (window C). Counting was performed both immediately after sacrifice and after 7 days; counts were decay corrected from the time of injection and then converted to the percentage of injected dose (% ID) per gram of tissue (% ID/g). No differences were noted between the data; therefore, the biodistributions are reported using the data acquired immediately using window A.
The biodistribution studies of [^225Ac(DOTA)]^− and ^225Ac(NO3)3 were carried out as described above for [^225Ac(macropa)]^+, with the following modifications. [^225Ac(DOTA)]^− was prepared by adding ^225Ac(NO3)3 (338 μL, 1.1 MBq) to a solution of DOTA (100 μg, 20 mg/mL in H2O) in NH4OAc (467 μL, 0.15 M, pH 7). The pH of the solution was adjusted to 7 using NH4OAc (150 μL, 1 M, pH 7) and the solution was heated at 85° C. for 45 min. RCY>99% was confirmed by TLC as described above. [^225Ac(DOTA)]^− was diluted with saline to a final concentration of 0.05 MBq/100 μL, and 100 μL were injected into each mouse. ^225Ac(NO3)3 (˜58 μL, 0.4 MBq) was diluted and injected in the same manner as [^225Ac(DOTA)]^−. One mouse that was to be euthanized at the 5 h time point in the [^225Ac(DOTA)]^− study died shortly after injection. In the same manner, one mouse that was to be euthanized at the 1 h time point in the ^225Ac(NO3)3 study died.
The in vivo stability [^225Ac(macropa)]^+ was examined by comparing its biodistribution to those of ^225Ac(NO3)3 and [^225Ac(DOTA)]^−. C57BL/6 mice were injected via tail vein with 10-50 kBq of each radiometal complex and were sacrificed after 15 min, 1 h, or 5 h. The amount of ^225Ac retained in each organ was quantified by gamma counting and reported as the percent of injected dose per gram of tissue (% ID/g). The results of these studies are compiled in Tables 1-3. Inadequate stability of an ^225Ac complex leading to the loss of radioisotope in vivo is manifested by the accumulation of ^225Ac in the liver, spleen, and bone of mice.^[11,12,32] […] The biodistribution profile of [^225Ac(macropa)]^+ (FIG. 3B) differs markedly from that of ^225Ac(NO3)3. […]

[1] = 15 min after i.v. injection, energy window A (60-120 keV)
[2] = 15 min after i.v. injection, energy window B (180-260 keV)
[3] = 15 min after i.v. injection, energy window C (400-480 keV)
[4] = 1 h after i.v. injection, energy window A (60-120 keV)
[5] = 1 h after i.v. injection, energy window B (180-260 keV)
[6] = 1 h after i.v. injection, energy window C (400-480 keV)
[7] = 5 h after i.v. injection, energy window A (60-120 keV)
[8] = 5 h after i.v. injection, energy window B (180-260 keV)

SMILES: O=C([O-])CN1CCN(CC(=O)[O-])CCN(CC(=O)[O-])CCN(CC(=O)[O-])CC1.[225Ac+3] [[^225Ac(DOTA)]^−]
- % ID/g in bladder [1]: 48.2703 % ID/g
- % ID/g in blood [1]: 5.2881 % ID/g
- % ID/g in bone (femur + joint) [1]: 2.6298 % ID/g
- % ID/g in brain [1]: 0.2655 % ID/g
- % ID/g in feces [1]: 6.2730 % ID/g
- % ID/g in heart [1]: 2.3335 % ID/g
- % ID/g in kidneys [1]: 27.6566 % ID/g
- % ID/g in large intestines [1]: 2.3348 % ID/g
- % ID/g in liver [1]: 2.2520 % ID/g
- % ID/g in lungs [1]: 5.7556 % ID/g
- % ID/g in pancreas [1]: 1.5090 % ID/g
- % ID/g in small intestines [1]: 2.6370 % ID/g
- % ID/g in spleen [1]: 2.5905 % ID/g
- % ID/g in stomach [1]: 2.7440 % ID/g
- % ID/g in tail [1]: 8.8606 % ID/g
- % ID/g in thyroids [1]: −5.7725 % ID/g
- % ID/g in urine [1]: 1467.9186 % ID/g
- % ID/g in bladder [2]: 54.4696 % ID/g
- % ID/g in blood [2]: 5.6357 % ID/g
- % ID/g in bone (femur + joint) [2]: 3.0357 % ID/g
- % ID/g in brain [2]: 0.2735 % ID/g
- % ID/g in feces [2]: 1.0222 % ID/g
- % ID/g in heart [2]: 2.7276 % ID/g
- % ID/g in kidneys [2]: 28.0858 % ID/g
- % ID/g in large intestines [2]: 2.5365 % ID/g
- % ID/g in liver [2]: 2.1817 % ID/g
- % ID/g in lungs [2]: 6.0147 % ID/g
- % ID/g in pancreas [2]: 1.4929 % ID/g
- % ID/g in small intestines [2]: 2.5009 % ID/g
- % ID/g in spleen [2]: 2.9076 % ID/g
- % ID/g in stomach [2]: 2.7311 % ID/g
- % ID/g in tail [2]: 9.4746 % ID/g
- % ID/g in thyroids [2]: 1.6601 % ID/g
- % ID/g in urine [2]: 1635.4394 % ID/g
- % ID/g in bladder [3]: 76.0987 % ID/g
- % ID/g in blood [3]: 7.2941 % ID/g
- % ID/g in bone (femur + joint) [3]: 4.4224 % ID/g
- % ID/g in brain [3]: 0.1588 % ID/g
- % ID/g in feces [3]: 1.5693 % ID/g
- % ID/g in heart [3]: 2.5579 % ID/g
- % ID/g in kidneys [3]: 40.4489 % ID/g
- % ID/g in large intestines [3]: 3.8419 % ID/g
- % ID/g in liver [3]: 2.9046 % ID/g
- % ID/g in lungs [3]: 7.3872 % ID/g
- % ID/g in pancreas [3]: 1.0290 % ID/g
- % ID/g in small intestines [3]: 3.8916 % ID/g
- % ID/g in spleen [3]: 1.5598 % ID/g
- % ID/g in stomach [3]: 3.2425 % ID/g
- % ID/g in tail [3]: 13.4731 % ID/g
- % ID/g in thyroids [3]: −109.5394 % ID/g
- % ID/g in urine [3]: 2691.0615 % ID/g
- % ID/g in bladder [4]: 4.7351 % ID/g
- % ID/g in blood [4]: 0.1144 % ID/g
- % ID/g in bone (femur + joint) [4]: 0.4487 % ID/g
- % ID/g in brain [4]: 0.0224 % ID/g
- % ID/g in feces [4]: 0.2035 % ID/g
- % ID/g in heart [4]: 0.1012 % ID/g
- % ID/g in kidneys [4]: 1.4020 % ID/g
- % ID/g in large intestines [4]: 0.1229 % ID/g
- % ID/g in liver [4]: 0.2715 % ID/g
- % ID/g in lungs [4]: 0.1555 % ID/g
- % ID/g in pancreas [4]: 0.0743 % ID/g
- % ID/g in small intestines [4]: 1.7207 % ID/g
- % ID/g in spleen [4]: 0.0938 % ID/g
- % ID/g in stomach [4]: 0.1367 % ID/g
- % ID/g in tail [4]: 0.8091 % ID/g
- % ID/g in thyroids [4]: 2.3564 % ID/g
- % ID/g in urine [4]: 158.6102 % ID/g
- % ID/g in bladder [5]: 4.7141 % ID/g
- % ID/g in blood [5]: 0.1127 % ID/g
- % ID/g in bone (femur + joint) [5]: 0.4126 % ID/g
- % ID/g in brain [5]: 0.0248 % ID/g
- % ID/g in feces [5]: 0.2349 % ID/g
- % ID/g in heart [5]: 0.1378 % ID/g
- % ID/g in kidneys [5]: 1.2560 % ID/g
- % ID/g in large intestines [5]: 0.0813 % ID/g
- % ID/g in liver [5]: 0.2672 % ID/g
- % ID/g in lungs [5]: 0.1946 % ID/g
- % ID/g in pancreas [5]: 0.0746 % ID/g
- % ID/g in small intestines [5]: 1.8809 % ID/g
- % ID/g in spleen [5]: 0.0825 % ID/g
- % ID/g in stomach [5]: 0.1379 % ID/g
- % ID/g in tail [5]: 0.8973 % ID/g
- % ID/g in thyroids [5]: 2.6514 % ID/g
- % ID/g in urine [5]: 159.1628 % ID/g
- % ID/g in bladder [6]: 6.9149 % ID/g
- % ID/g in blood [6]: 0.1102 % ID/g
- % ID/g in bone (femur + joint) [6]: 0.5654 % ID/g
- % ID/g in brain [6]: 0.0380 % ID/g
- % ID/g in feces [6]: 0.4091 % ID/g
- % ID/g in heart [6]: 0.2857 % ID/g
- % ID/g in kidneys [6]: 1.4787 % ID/g
- % ID/g in large intestines [6]: 0.1381 % ID/g
- % ID/g in liver [6]: 0.2841 % ID/g
- % ID/g in lungs [6]: 0.2551 % ID/g
- % ID/g in pancreas [6]: 0.1730 % ID/g
- % ID/g in small intestines [6]: 2.0201 % ID/g
- % ID/g in spleen [6]: 0.2228 % ID/g
- % ID/g in stomach [6]: 0.1720 % ID/g
- % ID/g in tail [6]: 1.0280 % ID/g
- % ID/g in thyroids [6]: 3.5247 % ID/g
- % ID/g in urine [6]: 177.6788 % ID/g
- % ID/g in bladder [7]: 0.3551 % ID/g
- % ID/g in blood [7]: 0.0140 % ID/g
- % ID/g in bone (femur + joint) [7]: 0.2063 % ID/g
- % ID/g in brain [7]: 0.0213 % ID/g
- % ID/g in feces [7]: 5.5318 % ID/g
- % ID/g in heart [7]: 0.0664 % ID/g
- % ID/g in kidneys [7]: 0.6172 % ID/g
- % ID/g in large intestines [7]: 0.2026 % ID/g
- % ID/g in liver [7]: 0.1010 % ID/g
- % ID/g in lungs [7]: 0.0390 % ID/g
- % ID/g in pancreas [7]: 0.0677 % ID/g
- % ID/g in small intestines [7]: 0.0967 % ID/g
- % ID/g in spleen [7]: 0.1380 % ID/g
- % ID/g in stomach [7]: 0.0852 % ID/g
- % ID/g in tail [7]: 0.3057 % ID/g
- % ID/g in thyroids [7]: 3.6425 % ID/g
- % ID/g in urine [7]: 1.1612 % ID/g
- % ID/g in bladder [8]: 0.7521 % ID/g
- % ID/g in blood [8]: 0.0292 % ID/g
- % ID/g in bone (femur + joint) [8]: 0.1478 % ID/g
- % ID/g in brain [8]: 0.0513 % ID/g
- % ID/g in feces [8]: 3.3534 % ID/g
- % ID/g in heart [8]: 0.0879 % ID/g
- % ID/g in kidneys [8]: 0.6718 % ID/g
- % ID/g in large intestines [8]: 0.2527 % ID/g
- % ID/g in liver [8]: 0.2712 % ID/g
- % ID/g in lungs [8]: 0.1289 % ID/g
- % ID/g in pancreas [8]: 0.1266 % ID/g
- % ID/g in small intestines [8]: 0.2065 % ID/g
- % ID/g in spleen [8]: 0.0834 % ID/g
- % ID/g in stomach [8]: 0.1789 % ID/g
- % ID/g in tail [8]: 0.1634 % ID/g
- % ID/g in thyroids [8]: 16.2357 % ID/g
- % ID/g in urine [8]: 3.6967 % ID/g
